Data taken from patent publication US10398144B2, “N-,C-disubstituted azoles and compositions and methods for controlling nematode pests” (Monsanto Technology LLC, priority 2013, dated 2019).
Marks after values point to notes of the source that are not given here.

Experiments:
[1] = test system: Meloidogyne incognita nematodes; test: Miniaturized greenhouse nematicidal efficacy assay (cucumber root gall rating); settings: average of triplicate gall ratings
Procedure: A miniaturized greenhouse assay was conducted to study the effects of several N-,C-disubstituted azole analogs on Meloidogyne incognita nematodes.
Cucumber seeds were sprouted for 3 days in moist paper towels. Acceptable sprouts were 3 to 4 cm long, with several lateral roots just emerging.
Each test solution was evaluated in triplicate. Dry sand (10 mL) was added to each vial. Seedlings were planted by tilting the vial and laying the seedling in the correct orientation so that the cotyledons were just above the sand, and then tilting back to cover the radicles with sand.
A sample of the test solution (3.3 mL) was then added to each vial, and the vials were placed in racks under fluorescent light banks. The vials were inoculated two days after planting by adding 500 vermiform M. incognita eggs to each vial in deionized or spring water (50 μL). The vials were then kept under the fluorescent lamps at ambient room temperature and watered as needed with deionized water (1 mL), usually twice during duration of test.
Harvest of the cucumber plants was performed 10 to 12 days after inoculation by washing sand off the roots. A root gall rating was assigned using the following Gall rating scale (Gall: % root mass galled): 0=0-5%; 1=6-20%; 2=21-50%; and 3=51-100%.

[2] = 1 ppm, cucumber seedlings in sand, 500 M. incognita eggs, harvest 10 to 12 days after inoculation, scale 0=0-5%, 1=6-20%, 2=21-50%, 3=51-100% root mass galled
[3] = 8 ppm, cucumber seedlings in sand, 500 M. incognita eggs, harvest 10 to 12 days after inoculation, scale 0=0-5%, 1=6-20%, 2=21-50%, 3=51-100% root mass galled
[4] = 40 ppm, cucumber seedlings in sand, 500 M. incognita eggs, harvest 10 to 12 days after inoculation, scale 0=0-5%, 1=6-20%, 2=21-50%, 3=51-100% root mass galled

Compound	40/8/1 ppm gall ratings [1, 2]	40/8/1 ppm gall ratings [1, 3]	40/8/1 ppm gall ratings [1, 4]	40/8/1 ppm gall ratings ([1]; comparative compositions at 1 ppm, letters a-d mark separate tests, scale 0-3)	melting point [°C]
c1ccc(-c2cn(-c3ccco3)nn2)cc1 [IIa-iii, 1-(furan-2-yl)-4-phenyl-1H-1,2,3-triazole]	2.00	1.33	0.00		
c1ccc(-c2cn(-c3cccs3)nn2)cc1 [IIa-ii, 4-phenyl-1-(thiophen-2-yl)-1H-1,2,3-triazole]	1.67	0.00	0.00		
Clc1ccc(-c2cn(-c3ccco3)nn2)cc1 [IIa-v, 4-(4-chlorophenyl)-1-(furan-2-yl)-1H-1,2,3-triazole]	2.33	0.67	0.00		
c1ccc(-n2ncc(-c3ccco3)n2)cc1 [Id-ii, 4-(furan-2-yl)-2-phenyl-2H-1,2,3-triazole]	2.33	1.00	0.00		
Fc1ccc(-n2cc(-c3ccco3)nn2)cc1 [Ia-iv, 1-(4-fluorophenyl)-4-(furan-2-yl)-1H-1,2,3-triazole]	2.33	1.67	0.33		
Fc1ccc(-n2cc(-c3ccco3)nn2)c(F)c1 [Ia-v, 1-(2,4-difluorophenyl)-4-(furan-2-yl)-1H-1,2,3-triazole]	2.33	0.67	0.00		
Clc1ccc(-n2cc(-c3cccs3)cn2)cc1 [Ib-ii, 1-(4-chlorophenyl)-4-(thiophen-2-yl)-1H-pyrazole]	2.33	0.67	0.00		
Abamectin [reference compound]				1.67^d	
c1ccc(-n2cc(-c3ccco3)cn2)cc1 [Ib-iii, 4-(furan-2-yl)-1-phenyl-1H-pyrazole]	2.67	1.67	0.00		
Fc1ccc(-n2cc(-c3cccs3)nn2)c(F)c1 [Ia-ii, 1-(2,4-difluorophenyl)-4-(thiophen-2-yl)-1H-1,2,3-triazole]	3.00	2.33	0.00		
c1ccc(-n2cc(-c3ccco3)nn2)cc1 [Formula Ia-i, 4-(furan-2-yl)-1-phenyl-1H-1,2,3-triazole]					118 to 120
c1ccc(-n2ncc(-c3cccs3)n2)cc1 [Id-i, 2-phenyl-4-(thiophen-2-yl)-2H-1,2,3-triazole]	1.67	0.33	0.00		
Clc1ccc(-n2cc(-c3ccco3)nn2)cc1 [Ia-iiii, 1-(4-chlorophenyl)-4-(furan-2-yl)-1H-1,2,3-triazole]	2.67	1.00	0.00		
c1ccc(-n2cc(-c3ccco3)nn2)cc1 [Ia-i, 4-(furan-2-yl)-1-phenyl-1H-1,2,3-triazole]	2.67	1.33	0.00		
c1ccc(-n2cc(-c3cccs3)cn2)cc1 [Ib-i, 1-phenyl-4-(thiophen-2-yl)-1H-pyrazole]	3.00	0.33	0.00		
Fc1ccc(-c2cn(-c3cccs3)nn2)cc1 [IIa-iv, 4-(4-fluorophenyl)-1-(thiophen-2-yl)-1H-1,2,3-triazole]	2.67	1.33	0.33		
c1ccc(-c2cn(-c3cccs3)cn2)cc1 [IIc-iii, 4-phenyl-1-(thiophen-2-yl)-1H-imidazole]	2.33	1.33	0.00		
Clc1ccc(-c2cn(-c3cccs3)cn2)cc1 [IIc-i, 4-(4-chlorophenyl)-1-(thiophen-2-yl)-1H-imidazole]	1.67	1.33	0.00		
Clc1ccc(-n2cnc(-c3ccco3)c2)cc1 [Ic-i, 1-(4-chlorophenyl)-4-(furan-2-yl)-1H-imidazole]	3.00	2.00	0.33		
Fc1ccc(-c2cn(-c3cccs3)nn2)c(F)c1 [IIa-i, 4-(2,4-difluorophenyl)-1-(thiophen-2-yl)-1H-1,2,3-triazole]	1.67	0.00	0.00		
Clc1ccc(-c2cn(-c3ccco3)cn2)cc1 [IIc-iv, 4-(4-chlorophenyl)-1-(furan-2-yl)-1H-imidazole]	2.33	2.00	0.33		
c1ccc(-n2ncc(-c3cccs3)n2)cc1 [Formula Id-i, 2-phenyl-4-(thiophen-2-yl)-2H-1,2,3-triazole]					78
